Experimental data as given in the NIST ThermoML archive (doi:10.1016/j.fluid.2013.11.028).

Key:
[1] = wn = mass fraction of the nth substance listed; conditions: 101 kPa, Liquid; for viscosity: Falling or rolling sphere viscometry; for binary diffusion coefficient: Taylor dispersion method; for mass density: Vibrating tube method
[2] = Liquid; for mass density: 101 kPa, Vibrating tube method; for viscosity: 101.33 kPa, Falling or rolling sphere viscometry
[3] = xn = mol fraction of the nth substance listed; conditions: 101 kPa, Liquid, Taylor dispersion method, x1 = 0.2

NCCNCCN [di(2-aminoethyl)amine] + O
[1]
Conditions | binary diffusion coefficient [m2/s] | mass density [kg/m3] | viscosity [mPa·s]
303.15 K, w1 = 0 | 7.45e-10 | – | –
303.15 K, w1 = 0.1 | 7.01e-10 | 998.5 | 1.211
303.15 K, w1 = 0.2 | 6.64e-10 | 1002.9 | 2.011
303.15 K, w1 = 0.3 | 6.14e-10 | 1009.8 | 3.572
303.15 K, w1 = 0.4 | 5.57e-10 | 1016.2 | 7.31
303.15 K, w1 = 1 | – | 942.1 | –
308.15 K, w1 = 0 | 8.43e-10 | – | –
308.15 K, w1 = 0.1 | 7.93e-10 | 996.7 | 1.08
308.15 K, w1 = 0.2 | 7.61e-10 | 1000.8 | 1.751
308.15 K, w1 = 0.3 | 7.14e-10 | 1007.2 | 3.015
308.15 K, w1 = 0.4 | 6.6e-10 | 1013 | 5.915
308.15 K, w1 = 1 | – | 937.9 | –
313.15 K, w1 = 0 | 9.5e-10 | – | –
313.15 K, w1 = 0.1 | 8.95e-10 | 994.8 | 0.97
313.15 K, w1 = 0.2 | 8.52e-10 | 998.7 | 1.54
313.15 K, w1 = 0.3 | 8.13e-10 | 1004.5 | 2.582
313.15 K, w1 = 0.4 | 7.41e-10 | 1009.9 | 4.859
313.15 K, w1 = 1 | – | 933.8 | –
318.15 K, w1 = 0 | 1.03e-09 | – | –
318.15 K, w1 = 0.1 | 1.01e-09 | 992.8 | 0.88
318.15 K, w1 = 0.2 | 9.38e-10 | 996.3 | 1.366
318.15 K, w1 = 0.3 | 8.82e-10 | 1001.8 | 2.234
318.15 K, w1 = 0.4 | 8.55e-10 | 1006.7 | 4.049
318.15 K, w1 = 1 | – | 929.6 | –
323.15 K, w1 = 0 | 1.19e-09 | – | –
323.15 K, w1 = 0.1 | 1.12e-09 | 990.6 | 0.799
323.15 K, w1 = 0.2 | 1.06e-09 | 993.9 | 1.221
323.15 K, w1 = 0.3 | 1.01e-09 | 998.9 | 1.95
323.15 K, w1 = 0.4 | 9.61e-10 | 1003.4 | 3.302
323.15 K, w1 = 1 | – | 925.5 | –

CNCCCN [N-methyl-1,3-diaminopropane]
[2]
Conditions | mass density [kg/m3]
303.15 K | 849.1
308.15 K | 844.7
313.15 K | 840.3
318.15 K | 835.9
323.15 K | 831.5

O [water]
[2]
Conditions | viscosity [mPa·s]
303.15 K | 0.789
308.15 K | 0.714
313.15 K | 0.651
318.15 K | 0.598
323.15 K | 0.541

CN(C)CCN(C)C [N,N,N',N'-tetramethyl-1,2-diaminoethane]
[2]
Conditions | mass density [kg/m3]
303.15 K | 767.3
308.15 K | 762.9
313.15 K | 759.1
318.15 K | 754.7
323.15 K | 750.3

CNCCCN [N-methyl-1,3-diaminopropane] + O
[1]
Conditions | binary diffusion coefficient [m2/s] | mass density [kg/m3] | viscosity [mPa·s]
303.15 K, w1 = 0 | 8.45e-10 | – | –
303.15 K, w1 = 0.1 | 7.35e-10 | 988.5 | 1.231
303.15 K, w1 = 0.2 | 6.87e-10 | 983.9 | 2.005
303.15 K, w1 = 0.3 | 6.4e-10 | 980.7 | 3.41
303.15 K, w1 = 0.4 | 6.08e-10 | 975.9 | 5.515
303.15 K, w1 = 1 | – | 849.1 | –
308.15 K, w1 = 0 | 9.56e-10 | – | –
308.15 K, w1 = 0.1 | 8.63e-10 | 986.7 | 1.09
308.15 K, w1 = 0.2 | 7.69e-10 | 981.6 | 1.731
308.15 K, w1 = 0.3 | 7.26e-10 | 977.7 | 2.823
308.15 K, w1 = 0.4 | 6.92e-10 | 972.2 | 4.451
308.15 K, w1 = 1 | – | 844.7 | –
313.15 K, w1 = 0 | 1.05e-09 | – | –
313.15 K, w1 = 0.1 | 9.36e-10 | 984.7 | 0.976
313.15 K, w1 = 0.2 | 8.72e-10 | 979.1 | 1.512
313.15 K, w1 = 0.3 | 8.25e-10 | 974.5 | 2.391
313.15 K, w1 = 0.4 | 7.77e-10 | 968.4 | 3.66
313.15 K, w1 = 1 | – | 840.3 | –
318.15 K, w1 = 0 | 1.18e-09 | – | –
318.15 K, w1 = 0.1 | 1.05e-09 | 982.6 | 0.887
318.15 K, w1 = 0.2 | 9.72e-10 | 976.4 | 1.333
318.15 K, w1 = 0.3 | 9.22e-10 | 971.3 | 2.059
318.15 K, w1 = 0.4 | 8.73e-10 | 964.6 | 2.979
318.15 K, w1 = 1 | – | 835.9 | –
323.15 K, w1 = 0 | 1.31e-09 | – | –
323.15 K, w1 = 0.1 | 1.18e-09 | 980.2 | 0.808
323.15 K, w1 = 0.2 | 1.09e-09 | 973.7 | 1.184
323.15 K, w1 = 0.3 | 1.03e-09 | 967.9 | 1.769
323.15 K, w1 = 0.4 | 9.77e-10 | 960.7 | 2.525
323.15 K, w1 = 1 | – | 831.5 | –

CN(C)CCCN(C)C [N,N,N',N'-tetramethyl-1,3-propanediamine]
[2]
Conditions | mass density [kg/m3]
303.15 K | 774.8
308.15 K | 770.9
313.15 K | 767.4
318.15 K | 765
323.15 K | 761.4

CN(C)CCCN(C)C [N,N,N',N'-tetramethyl-1,3-propanediamine] + O
[1]
Conditions | binary diffusion coefficient [m2/s] | mass density [kg/m3] | viscosity [mPa·s]
303.15 K, w1 = 0 | 7.01e-10 | – | –
303.15 K, w1 = 0.1 | 4.86e-10 | 983.3 | 1.345
303.15 K, w1 = 0.2 | 3.74e-10 | 972.5 | 2.335
303.15 K, w1 = 0.3 | 3.05e-10 | 960.1 | 3.923
303.15 K, w1 = 0.4 | 2.56e-10 | 944.6 | 6.081
303.15 K, w1 = 1 | – | 774.8 | –
308.15 K, w1 = 0 | 7.99e-10 | – | –
308.15 K, w1 = 0.1 | 5.53e-10 | 981.4 | 1.183
308.15 K, w1 = 0.2 | 4.41e-10 | 969.8 | 1.985
308.15 K, w1 = 0.3 | 3.57e-10 | 956.7 | 3.192
308.15 K, w1 = 0.4 | 2.89e-10 | 940.6 | 4.853
308.15 K, w1 = 1 | – | 770.9 | –
313.15 K, w1 = 0 | 9.04e-10 | – | –
313.15 K, w1 = 0.1 | 6.16e-10 | 979.3 | 1.051
313.15 K, w1 = 0.2 | 4.83e-10 | 967 | 1.709
313.15 K, w1 = 0.3 | 4.09e-10 | 953.1 | 2.669
313.15 K, w1 = 0.4 | 3.45e-10 | 936.6 | 3.838
313.15 K, w1 = 1 | – | 767.4 | –
318.15 K, w1 = 0 | 1.01e-09 | – | –
318.15 K, w1 = 0.1 | 6.82e-10 | 977 | 0.941
318.15 K, w1 = 0.2 | 5.41e-10 | 964 | 1.488
318.15 K, w1 = 0.3 | 4.58e-10 | 949.5 | 2.264
318.15 K, w1 = 0.4 | 3.82e-10 | 932.5 | 3.182
318.15 K, w1 = 1 | – | 765 | –
323.15 K, w1 = 0 | 1.08e-09 | – | –
323.15 K, w1 = 0.1 | 7.48e-10 | 974.6 | 0.846
323.15 K, w1 = 0.2 | 6.07e-10 | 961 | 1.311
323.15 K, w1 = 0.3 | 5.14e-10 | 945.8 | 1.945
323.15 K, w1 = 0.4 | 4.32e-10 | 928.4 | 2.681
323.15 K, w1 = 1 | – | 761.4 | –

NCCNCCN [di(2-aminoethyl)amine]
[2]
Conditions | mass density [kg/m3]
303.15 K | 942.1
308.15 K | 937.9
313.15 K | 933.8
318.15 K | 929.6
323.15 K | 925.5

OCCO [1,2-ethanediol] + O
[3]
Conditions | binary diffusion coefficient [m2/s]
303.15 K | 8.21e-10
308.15 K | 9.03e-10
313.15 K | 9.98e-10
318.15 K | 1.09e-09
323.15 K | 1.2e-09

CN(C)CCN(C)C [N,N,N',N'-tetramethyl-1,2-diaminoethane] + O
[1]
Conditions | binary diffusion coefficient [m2/s] | mass density [kg/m3] | viscosity [mPa·s]
303.15 K, w1 = 0 | 7.34e-10 | – | –
303.15 K, w1 = 0.1 | 5.61e-10 | 982.9 | 1.34
303.15 K, w1 = 0.2 | 4.62e-10 | 972.6 | 2.338
303.15 K, w1 = 0.3 | 3.74e-10 | 962.1 | 3.963
303.15 K, w1 = 0.4 | 3.12e-10 | 947.8 | 6.207
303.15 K, w1 = 1 | – | 767.3 | –
308.15 K, w1 = 0 | 8.35e-10 | – | –
308.15 K, w1 = 0.1 | 6.29e-10 | 981 | 1.179
308.15 K, w1 = 0.2 | 5.25e-10 | 970 | 1.983
308.15 K, w1 = 0.3 | 4.4e-10 | 958.6 | 3.243
308.15 K, w1 = 0.4 | 3.66e-10 | 943.7 | 4.925
308.15 K, w1 = 1 | – | 762.9 | –
313.15 K, w1 = 0 | 9.38e-10 | – | –
313.15 K, w1 = 0.1 | 7.16e-10 | 979 | 1.046
313.15 K, w1 = 0.2 | 5.74e-10 | 967.3 | 1.704
313.15 K, w1 = 0.3 | 4.91e-10 | 955.1 | 2.705
313.15 K, w1 = 0.4 | 4.25e-10 | 939.5 | 3.941
313.15 K, w1 = 1 | – | 759.1 | –
318.15 K, w1 = 0 | 1.05e-09 | – | –
318.15 K, w1 = 0.1 | 8.01e-10 | 976.7 | 0.933
318.15 K, w1 = 0.2 | 6.38e-10 | 964.4 | 1.481
318.15 K, w1 = 0.3 | 5.53e-10 | 951.5 | 2.287
318.15 K, w1 = 0.4 | 4.61e-10 | 935.3 | 3.205
318.15 K, w1 = 1 | – | 754.7 | –
323.15 K, w1 = 0 | 1.18e-09 | – | –
323.15 K, w1 = 0.1 | 9.51e-10 | 974.3 | 0.839
323.15 K, w1 = 0.2 | 7.5e-10 | 961.4 | 1.301
323.15 K, w1 = 0.3 | 6.29e-10 | 947.8 | 1.96
323.15 K, w1 = 0.4 | 5.31e-10 | 931 | 2.682
323.15 K, w1 = 1 | – | 750.3 | –
